25 compounds from patent US9365575B2, “Kinase inhibitors” (Allergan, Inc., priority 2012, dated 2016) can be followed below.

Where only a bound is given, the exact number is not on record here.

This assay has as its target VEGFR2 (Homo sapiens (Human), UniProt P35968). Put plainly: VEGFR2 Kinase Assay (biochemical KDR kinase assay, poly-Glu-Tyr ELISA). The settings on record: for IC50: purified cytoplasmic domain KDR protein, 2.7 μM ATP, 15 minute incubation at 30° C., read-out: VEGFR2 Enzyme IC50; for VEGFR2 potency as shown in this assay (in words): statement in words on the Table 2 data. The protocol:
Biochemical KDR kinase assays were performed in 96 well microtiter plates that were coated overnight with 75 μg/well of poly-Glu-Tyr (4:1) in 10 mM Phosphate Buffered Saline (PBS), pH 7.4. The coated plates were washed with 2 mLs per well PBS+0.05% Tween-20 (PBS-T), blocked by incubation with PBS containing 1% BSA, then washed with 2 mLs per well PBS-T prior to starting the reaction. Reactions were carried out in 100 μL reaction volumes containing 2.7 μM ATP in kinase buffer (50 mM Hepes buffer pH 7.4, 20 mM MgCl2, 0.1 mM MnCl2 and 0.2 mM Na3VO4). […] Reactions were initiated by the addition 20 ul per well of kinase buffer containing 200-300 ng purified cytoplasmic domain KDR protein (BPS Bioscience, San Diego, Calif.). Following a 15 minute incubation at 30° C., the reactions were washed 2 mLs per well PBS-T. 100 μl of a monoclonal anti-phosphotyrosine antibody-peroxidase conjugate diluted 1:10,000 in PBS-T was added to the wells for 30 minutes. Following a 2 mLs per well wash with PBS-Tween-20, 100 μl of O-Phenylenediamine Dihydrochloride in phosphate-citrate buffer, containing urea hydrogen peroxide, was added to the wells for 7-10 minutes as a colorimetric substrate for the peroxidase. The reaction was terminated by the addition of 100 μl of 2.5N H2SO4 to each well and read using a microplate ELISA reader set at 492 nm. IC50 values for compound inhibition were calculated directly from graphs of optical density (arbitrary units) versus compound concentration following subtraction of blank values.

One may read the IC50 as the midpoint of a concentration-inhibition curve.

Chain of VEGFR2 (P35968 786-1356): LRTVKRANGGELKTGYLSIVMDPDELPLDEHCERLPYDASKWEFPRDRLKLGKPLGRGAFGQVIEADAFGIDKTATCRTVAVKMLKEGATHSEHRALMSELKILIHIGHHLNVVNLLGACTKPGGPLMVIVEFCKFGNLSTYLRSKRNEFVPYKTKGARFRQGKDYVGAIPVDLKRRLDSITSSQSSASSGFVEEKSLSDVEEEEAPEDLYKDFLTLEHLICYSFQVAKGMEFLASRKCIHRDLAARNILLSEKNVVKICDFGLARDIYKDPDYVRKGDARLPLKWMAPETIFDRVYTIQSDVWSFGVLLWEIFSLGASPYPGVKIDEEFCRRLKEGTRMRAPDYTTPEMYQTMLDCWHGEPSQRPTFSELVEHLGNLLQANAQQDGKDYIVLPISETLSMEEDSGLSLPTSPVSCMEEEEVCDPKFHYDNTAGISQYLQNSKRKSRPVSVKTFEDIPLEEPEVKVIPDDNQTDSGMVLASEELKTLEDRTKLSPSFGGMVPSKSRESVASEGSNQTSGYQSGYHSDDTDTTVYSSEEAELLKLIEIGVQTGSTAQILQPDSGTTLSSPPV

Take `O=C1Nc2ccccc2C2=NCC(c3ccc(Cl)cc3)CN12` (stereo not drawn) [Example 1, 3-(4-Chlorophenyl)-2,3,4,7-tetrahydro-6H-pyrimido[1,2-c]quinazolin-6-one]: the IC50 was greater than 10000 nM.

`Nc1cccc(C2CN=C3c4ccccc4NC(=O)N3C2)c1` (stereo not drawn) [Example 2, 3-(3-Aminophenyl)-2,3,4,7-tetrahydro-6H-pyrimido[1,2-c]quinazolin-6-one]: the IC50 is greater than 10000 nM.

In the case of `O=C(Nc1cccc(C2CN=C3c4ccccc4NC(=O)N3C2)c1)Nc1cc(C(F)(F)F)ccc1F` (stereo not drawn) [Example 3, 1-[2-Fluoro-5-(trifluoromethyl)phenyl]-3-[3-(6-oxo-3,4,6,7-tetrahydro-2H-pyrimido[1,2-c]quinazolin-3-yl)phenyl]urea], the IC50 came out at 760 nM and the “VEGFR2 potency as shown in this assay (in words)” value (“VEGFR2 potency as shown” for short) is recorded as “excellent VEGFR2 potency”.

Take `Nc1ccc(C2CN=C3c4ccccc4NC(=O)N3C2)cc1` (stereo not drawn) [Example 4, 3-(4-Aminophenyl)-2,3,4,7-tetrahydro-6H-pyrimido[1,2-c]quinazolin-6-one]: the IC50 was greater than 10000 nM.

Take `O=C(Nc1ccc(C2CN=C3c4ccccc4NC(=O)N3C2)cc1)Nc1cc(C(F)(F)F)ccc1F` (stereo not drawn) [Example 5, 1-[2-Fluoro-5-(trifluoromethyl)phenyl]-3-[4-(6-oxo-3,4,6,7-tetrahydro-2H-pyrimido[1,2-c]quinazolin-3-yl)phenyl]urea]: the half-maximal inhibitory concentration (IC50) was determined as 360 nM and the “VEGFR2 potency as shown” value was “excellent VEGFR2 potency”.

As for `O=C(Nc1ccccc1)Nc1ccc(C2CN=C3c4ccccc4NC(=O)N3C2)cc1` (stereo not drawn) [Example 6, 1-[4-(6-Oxo-3,4,6,7-tetrahydro-2H-pyrimido[1,2-c]quinazolin-3-yl)phenyl]-3-phenylurea], the IC50 was found to be 4750 nM.

As for `O=C(Nc1ccc(C2CN=C3c4ccccc4NC(=O)N3C2)cc1)Nc1ccc(Cl)c(C(F)(F)F)c1` (stereo not drawn) [Example 7, 1-[4-Chloro-3-(trifluoromethyl)phenyl]-3-[4-(6-oxo-3,4,6,7-tetrahydro-2H-pyrimido[1,2-c]quinazolin-3-yl)phenyl]urea], the IC50 came to 340 nM and the “VEGFR2 potency as shown” value is listed as “excellent VEGFR2 potency”.

`CSc1cccc(NC(=O)Nc2ccc(C3CN=C4c5ccccc5NC(=O)N4C3)cc2)c1` (stereo not drawn) [Example 8, 1-[3-(Methylthio)phenyl]-3-[4-(6-oxo-3,4,6,7-tetrahydro-2H-pyrimido[1,2-c]quinazolin-3-yl)phenyl]urea]: the IC50 amounted to 1800 nM.

As to `O=C(Nc1ccc(C2CN=C3c4ccccc4NC(=O)N3C2)cc1)Nc1cccc(Br)c1` (stereo not drawn) [Example 9, 1-(3-Bromophenyl)-3-[4-(6-oxo-3,4,6,7-tetrahydro-2H-pyrimido[1,2-c]quinazolin-3-yl)phenyl]urea], the IC50 is 250 nM and the “VEGFR2 potency as shown” value was “excellent VEGFR2 potency”.

`Cc1cccc(NC(=O)Nc2ccc(C3CN=C4c5ccccc5NC(=O)N4C3)cc2)c1` (stereo not drawn) [Example 10, 1-(3-Methylphenyl)-3-[4-(6-oxo-3,4,6,7-tetrahydro-2H-pyrimido[1,2-c]quinazolin-3-yl)phenyl]urea]: the IC50 was determined as 330 nM and the “VEGFR2 potency as shown” value is reported as “excellent VEGFR2 potency”.

`Cc1ccc(NC(=O)Nc2ccc(C3CN=C4c5ccccc5NC(=O)N4C3)cc2)cc1` (stereo not drawn) [Example 11, 1-(4-Methylphenyl)-3-[4-(6-oxo-3,4,6,7-tetrahydro-2H-pyrimido[1,2-c]quinazolin-3-yl)phenyl]urea]: the 50% inhibitory concentration (IC50) amounted to 4030 nM.

Consider `COc1ccc(NC(=O)Nc2ccc(C3CN=C4c5ccccc5NC(=O)N4C3)cc2)cc1` (stereo not drawn) [Example 12, 1-(4-Methoxyphenyl)-3-[4-(6-oxo-3,4,6,7-tetrahydro-2H-pyrimido[1,2-c]quinazolin-3-yl)phenyl]urea], for which the IC50 was greater than 10000 nM.

Regarding `COc1cccc(NC(=O)Nc2ccc(C3CN=C4c5ccccc5NC(=O)N4C3)cc2)c1` (stereo not drawn) [Example 13, 1-(3-Methoxyphenyl)-3-[4-(6-oxo-3,4,6,7-tetrahydro-2H-pyrimido[1,2-c]quinazolin-3-yl)phenyl]urea], the IC50 came to 1470 nM.

On to `CC(C)NC(=O)Nc1ccc(C2CN=C3c4ccccc4NC(=O)N3C2)cc1` (stereo not drawn) [Example 14, 1-Isopropyl-3-[4-(6-oxo-3,4,6,7-tetrahydro-2H-pyrimido[1,2-c]quinazolin-3-yl)phenyl]urea], for which the “VEGFR2 potency as shown” value is reported as “lack of potency”.

On to `Cc1ccoc1C(=O)Nc1cccc(C2CN=C3c4ccccc4NC(=O)N3C2)c1` (stereo not drawn) [Example 15, 3-Methyl-N-[3-(6-oxo-3,4,6,7-tetrahydro-2H-pyrimido[1,2-c]quinazolin-3-yl)phenyl]-2-furamide], for which the IC50 turned out to be 6380 nM and the “VEGFR2 potency as shown” value is given as “excellent VEGFR2 potency”.

As for `Cc1ccoc1C(=O)Nc1ccc(C2CN=C3c4ccccc4NC(=O)N3C2)cc1` (stereo not drawn) [Example 16, 3-Methyl-N-[4-(6-oxo-3,4,6,7-tetrahydro-2H-pyrimido[1,2-c]quinazolin-3-yl)phenyl]-2-furamide], the half-maximal inhibitory concentration (IC50) is greater than 10000 nM.

As to `O=C(Nc1ccc(C2CN=C3c4ccccc4NC(=O)N3C2)cc1)c1cccc(C(F)(F)F)c1` (stereo not drawn) [Example 17, N-[4-(6-oxo-3,4,6,7-tetrahydro-2H-pyrimido[1,2-c]quinazolin-3-yl)phenyl]-3-(trifluoromethyl)benzamide], the IC50 was greater than 10000 nM.

`CNc1ccc(C2CN=C3c4ccc(C(=O)OC)cc4NC(=O)N3C2)cc1` (stereo not drawn) [Example 18, Methyl 3-[4-(methylamino)phenyl]-6-oxo-3,4,6,7-tetrahydro-2H-pyrimido[1,2-c]quinazoline-9-carboxylate]: the IC50 was greater than 10000 nM.

Consider `COC(=O)c1ccc2c(c1)NC(=O)N1CC(c3ccc(N(C)C(=O)CN4CCN(C)CC4)cc3)CN=C21` (stereo not drawn) [Example 19, Methyl 3-(4-{methyl[(4-methylpiperazin-1-yl)acetyl]amino}phenyl)-6-oxo-3,4,6,7-tetrahydro-2H-pyrimido[1,2-c]quinazoline-9-carboxylate], for which the IC50 was greater than 10000 nM and the “VEGFR2 potency as shown” value was “lack of potency”.

On to `CN1CCN(CC(=O)Nc2ccc(C3CN=C4c5ccccc5NC(=O)N4C3)cc2)CC1` (stereo not drawn) [Example 20, 2-(4-Methylpiperazin-1-yl)-N-[4-(6-oxo-3,4,6,7-tetrahydro-2H-pyrimido[1,2-c]quinazolin-3-yl)phenyl]acetamide], for which the IC50 is greater than 10000 nM and the “VEGFR2 potency as shown” value is “lack of potency”.

For `COC(=O)c1ccc2c(c1)NC(=O)N1CC(c3ccc(N(C)C(=O)Nc4cc(C(F)(F)F)ccc4F)cc3)CN=C21` (stereo not drawn) [Example 21, Methyl 3-{4-[({[2-fluoro-5-(trifluoromethyl)phenyl]amino}carbonyl)(methyl)amino]phenyl}-6-oxo-3,4,6,7-tetrahydro-2H-pyrimido[1,2-c]quinazoline-9-carboxylate], the IC50 was greater than 10000 nM.

Regarding `Cc1cc(C2CN=C3c4ccccc4NC(=O)N3C2)ccc1N` (stereo not drawn) [Example 22, 3-(4-amino-3-methylphenyl)-2,3,4,7-tetrahydro-6H-pyrimido[1,2-c]quinazolin-6-one], the IC50 was greater than 10000 nM.

Take `Cc1cc(N)ccc1C1CN=C2c3ccccc3NC(=O)N2C1` (stereo not drawn) [Example 23, 3-(4-amino-2-methylphenyl)-2,3,4,7-tetrahydro-6H-pyrimido[1,2-c]quinazolin-6-one]: the IC50 is greater than 10000 nM.

`Cc1cccc(NC(=O)Nc2ccc(C3CN=C4c5ccccc5NC(=O)N4C3)c(C)c2)c1` (stereo not drawn) [Example 24, 1-[3-methyl-4-(6-oxo-3,4,6,7-tetrahydro-2H-pyrimido[1,2-c]quinazolin-3-yl)phenyl]-3-(3-methylphenyl)urea]: the half-inhibitory concentration (IC50) was determined as 1500 nM.

Regarding `Cc1cc(NC(=O)Nc2cc(C(F)(F)F)ccc2F)ccc1C1CN=C2c3ccccc3NC(=O)N2C1` (stereo not drawn) [Example 25, 1-[2-fluoro-5-(trifluoromethyl)phenyl]-3-[3-methyl-4-(6-oxo-3,4,6,7-tetrahydro-2H-pyrimido[1,2-c]quinazolin-3-yl)phenyl]urea], the IC50 was determined as 390 nM.
